# Tests used:
# [1] = target: T1, human recombinant melanocortin MC4 receptor (Homo sapiens, UniProt P32245); assay: Functional cellular cAMP TR-FRET assay, antagonist mode (inhibition of 10 nM NDP-α-MSH response); assay type: cell-based; conditions: for Antagonist Fold-margin on human Cmax (unbound): antagonist IC50 divided by clinical Cmax (unbound)
# T1 construct: host or cells: frozen, irradiated CHO-K1 cells
# [2] = read-out: Human efficacious Cmax; total plasma, at recommended clinical dosage; cited from earlier work
# [3] = Human clinical Cmax at recommended clinical dosage; assay type: in vivo; conditions: unbound (protein-free)
# human MC4R [4] = target: T2, human MC4R (Homo sapiens, UniProt P32245); assay: Biochemical radioligand binding assay ([125I]NDP-α-MSH) on membranes of transfected CHO cells; parameters: host or cells: CHO cells (membrane homogenates); conditions: for % inhibition of binding at 100 µM: 100 µM test compound, % inhibition of [125I]NDP-α-MSH specific binding; for IC50: radioligand binding, 0.05 nM [125I]NDP-α-MSH, 8 concentrations
# T2 sequence (P32245 whole entry): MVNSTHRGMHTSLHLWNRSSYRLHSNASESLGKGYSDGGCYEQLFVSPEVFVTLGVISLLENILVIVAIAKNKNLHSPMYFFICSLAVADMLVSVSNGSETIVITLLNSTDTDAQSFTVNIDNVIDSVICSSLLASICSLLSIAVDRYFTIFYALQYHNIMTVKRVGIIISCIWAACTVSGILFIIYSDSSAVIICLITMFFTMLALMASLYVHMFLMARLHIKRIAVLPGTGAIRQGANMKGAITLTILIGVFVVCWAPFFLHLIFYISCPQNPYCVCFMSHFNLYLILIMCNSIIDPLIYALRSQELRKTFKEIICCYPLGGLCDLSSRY
# [5] = human plasma; cited from earlier work
# [6] = target: T1, human recombinant melanocortin MC4 receptor; assay: Functional cellular cAMP TR-FRET assay, agonist mode; assay type: cell-based; conditions: for Agonist Fold-margin on human Cmax (unbound): agonist IC50 divided by clinical Cmax (unbound); for IC50: cAMP increase relative to 3 μM NDP-α-MSH control, CHO-K1 cells
# human MC4R [7] = target: T2, human MC4R; parameters: method as in earlier work; conditions: 10 μM; previously reported; cited from earlier work
# rats = conditions: daily oral, 26 weeks, AUC 16- to 30-fold clinical exposure at 50 mg; cited from earlier work
# cynomolgous monkeys = conditions: daily oral, 39 weeks, AUC 16- to 30-fold clinical exposure at 50 mg; cited from earlier work
# mice = conditions: daily oral, 4 weeks, AUC 16- to 30-fold clinical exposure at 50 mg; cited from earlier work
# T1 sequence (P32245 whole entry): as above
Compound,"IC50 ([1]; inhibition of 10 nM NDP-α-MSH induced cAMP response, CHO-K1 cells)",Cmax [2],Human efficacious unbound Cmax [3],% inhibition of binding at 100 µM (human MC4R [4]),IC50 (human MC4R [4]),% unbound [5],Agonist Fold-margin on human Cmax (unbound) [6],IC50 [6],IC50 [1],Antagonist Fold-margin on human Cmax (unbound) [1],inhibition binding value (human MC4R [7]),effects on body weight gain (rats),effects on body weight gain (cynomolgous monkeys),effects on body weight gain (mice),fold more potent in MC4R antagonism than DTG ([1]; EVG versus DTG)
"agouti-related protein (SSRRCVRLHESCLGQQVPCCDPCATCYCRFFNAFCYCRKLGTAMNPCSRT; UniProt O00253 83-132, looked up) [AgRP]",0.012 µM,,,,,,,,,,,,,,
"C[C@H]1CO[C@@H]2Cn3cc(C(=O)NCc4ccc(F)cc4F)c(=O)c(O)c3C(=O)N12 [CAB, cabotegravir]",,15.7 µM,0.025 µM,86%,0.46 µM,0.16%,>1200 fold,> 30 µM,> 30 µM,>1200 fold,,,,,
"C[C@@H]1CCO[C@H]2Cn3cc(C(=O)NCc4ccc(F)cc4F)c(=O)c(O)c3C(=O)N12 [DTG, dolutegravir]",,8.8 µM,0.062 µM,91%,1.7 µM,0.7%,>1600 fold,> 100 µM,69.4 µM,1120 fold,64%,,,,
"O=C(NCc1c(F)cc(F)cc1F)c1cn2c(c(O)c1=O)C(=O)N1[C@H]3CC[C@H](C3)O[C@@H]1C2 [BIC, bictegravir]",,13.7 µM,0.034 µM,89%,4.9 µM,0.25%,>2900 fold,> 100 µM,> 100 µM,,,no effects on body weight gain,no effects on body weight gain,no effects on body weight gain,
"COc1cc2c(cc1Cc1cccc(Cl)c1F)c(=O)c(C(=O)O)cn2[C@H](CO)C(C)C [EVG, elvitegravir]",,4.7 µM,0.0225 µM,56%,13 µM,0.48%,>13000 fold,> 300 µM,2.75 µM,120 fold,,,,,approximately 25 fold
"Cc1nnc(C(=O)NC(C)(C)c2nc(C(=O)NCc3ccc(F)cc3)c(O)c(=O)n2C)o1 [RAL, raltegravir]",,15.7 µM,,55%,78 µM,,,> 300 µM,> 300 µM,,,,,,

# — publication PMC7048285, “Lack of an association between clinical INSTI-related body weight gain and direct interference with MC4 receptor (MC4R), a key central regulator of body weight” (PLoS ONE, 2020)
